“Also recorded” adds a separate entry of the source.

One series deals with CHO cells. The series is described as follows: Study of metabolism in vitro in CHO cells, steroids in culture medium by GC/MS. The conditions noted are these: CHO cells. The procedure:
(§1) Plasma, brain and culture medium levels of pregnenolone (5-Pregnen-3β-ol-20-one), allopregnanolone (3α-hydroxy-5α-pregnan-20-one), epiallopregnanolone (3β-hydroxy-5α-pregnan-ol-20-one), testosterone, and 5α dihydrotestosterone were determined by GC/MS according to the of estraction, purification and quantification protocol described previously (George O, et al., Biol Psychiatry. 2010 68: 956-63, Vallee M, et al., Anal Biochem. 2000, 287:153-66).
The CHO-K1 cell line (#CCL-61, ATCC-LGC, USA) derived as a subclone from the parental CHO cell line initiated from a biopsy of an adult Chinese hamster ovary was used. The CHO-K1 cells were seeded on 24-well plates (#353047, BD Biosciences, USA) to the appropriate concentration (25×10^4 cells/well) in fresh, antibiotic-free medium constituted by 90% DMEM-Glutamax; (#31966-21, Life technologies, USA) and 10% Fetal Bovine Serum (#10270-106, Life technologies, USA).
In this example the inventors further analyzed the metabolism of pregnenolone derivatives using an in vitro test in CHO cells. These cells derived from the ovary have all the enzymes needed to metabolize pregnenolone in down stream steroids.

A short description of series [1]: Allopregnanolone and epiallopregnanolone in nucleus accumbens after high dose injection (GC/MS). It is filed as in vivo, Wistar rats. The conditions noted are these: 50 mg/kg; 30 min after the injections. As to the method:
The capacity of a compound of the invention to be or not to be converted into active pregnenolone downstream derivatives may be evaluated by administering this compound, for example by injecting 50 mg/kg, to a rat, sacrificing the rat 30 min later, measuring the concentration of allopregnanolone and epiallopregnanolone in nucleus accumbens of rat by GC/MS and comparing these concentrations to allopregnanolone and epiallopregnanolone in a rat whose has been injected only a vehicle or pregnenolone.
The concentrations of allopregnanolone and epiallopregnanolone were measured in nucleus accumbens of individual animal by GC/MS 30 min after the injections.

Series [2] has as its target T1, CB1 receptor (Mus musculus, UniProt P47746). The series is described as follows: THC-induced increase in food intake in mice. The format is in vivo. Further details: tissue Charles River Laboratories (France) (animals); host or cells: living mice, whole animal. Particulars: for effect on THC-induced increase in food intake (hyperphagia) in mice: 24 h-food deprived C57B1/6 mice, THC 1 mg/kg, compound 2 mg/kg sc; for % Inhibition of THC-Induced food intake: mice, THC between 0.5 and 1 mg/kg, compounds between 2 and 4 mg/kg 30 min before THC. As to the method: (§2) Food intake was evaluated by measuring consumption of food in the home cages of the animals. For each animal, 50-100 g of standard laboratory chow (U.A.R., France) was placed in the cleaned home cage. The remaining amount of food was weighted 1 h later and the amount of food consumed calculated.
(§3) Other pregnenolone derivatives (Table 4) for which the metabolism in downstream active steroids was reduced were tested for their ability to inhibit: 1. effects of the THC-induced cannabinoid tetrade (decrease in body temperature and in locomotor activity, (THC 10 mg/kg, compounds 6 mg/kg 15-30 min before THC) that is recognized as a sound method to evaluate the activation of the CB1 receptor; 2. THC-induced increase in food intake a typical effect of CB1 activation (THC between 0.5 and 1 mg/kg, compounds between 2 and 4 mg/kg 30 min before THC); 3. the increase in TNFalpha induced by LPS, another effects typical of CB1 […] (compounds 6 mg/kg 15 min before LPS). For each compound and each test independent groups of animals were used (at least n=6 per compound/per test).

Series [3] addresses T1, CB1 receptor. The series is described as follows: Food intake in 24 h-food deprived mice (fasting/refeeding). The conditions noted are these: no THC; for first statistically significant dose for decrease of food intake: food-deprived (food-restricted) mice; for effect on food intake in 24 h-food deprived mice: food intake over 1 h. Further details: tissue Charles River Laboratories (France) (animals); host or cells: living mice, whole animal. It is filed as in vivo, C57B1/6 mice.

Series [4] concerns the target T1, CB1 receptor. As to the kind of experiment: THC-induced cannabinoid tetrad (body temperature, locomotor activity, catalepsy, analgesia). Further details: tissue Charles River Laboratories (France) (animals); host or cells: living mice, whole animal. The conditions noted are these: mice; THC 10 mg/kg; compounds 6 mg/kg 15-30 min before THC. It is filed as in vivo, mice.

A further series deals with TNF-α. As to the kind of experiment: Increase in plasma TNF-alpha induced by LPS. It is filed as in vivo, mice. Particulars: Mus musculus; mice; compounds 6 mg/kg 15 min before LPS. The procedure: Trunk blood was collected and centrifuged at 3000 rpm for 15 min at 4° C. Plasma was stored at −80° C. until measurement of TNFα was carried out. Plasma TNFα levels were assessed using an ELISA kit, following the manufacturer's instructions (Fisher Scientific, Catalog #E6473C).
In this example the inventors further analyzed the ability of pregnenolone to inhibit the effects of CB1 activation in the context of inflammation and fibrosis. […] TNF-alpha is one of the cellular responses to inflammatory stimuli more involved in promoting fibrosis.
as §3

Series [5] addresses T2, CB1 receptor (Rattus norvegicus, UniProt P20272). As to the kind of experiment: THC-induced increase in food intake in ad libitum fed Wistar rats. It is filed as in vivo. Further details: tissue Charles River Laboratories (France) (animals); host or cells: living Wistar rats, whole animal. Particulars: THC 0.5 mg/kg; 17-methylpregnenolone 8 mg/kg sc. The procedure:
as §2

For the next series, the system named is GABA-A receptors. The series is described as follows: GABA-A receptors-mediated mIPSC in nucleus accumbens principal neurons. The format is cell-based, mouse. The procedure: GABA-A receptors-mediated currents: mIPSC were recorded in the presence of the AMPAR and NMDAR antagonists (DNQX 20 μM and AP-5 50 μM, respectably). mEPSC-mIPSC analysis: Typically, after breaking in, cells were left to equilibrate for 20 minutes and the subsequent 10 minutes recording of mEPSC-mIPSC was used to analysis. mEPSC-mIPSC were detected using a template generated from averaging several typical events (Clampfit 10, Molecular Devices). The template was slid along the data trace one point at a time. At each position, the template was optimally scaled and offset to fit the data. A lower-amplitude threshold of 7 pA and 10 pA were applied for mEPSC and mIPSC, respectably, equivalent to 2.5SD of baseline noise. For each cell, the kinetics of mEPSC-mIPSC was measured from the average event using Clampfit 10. To estimate decay times, a two exponentials curve was fitted between 5 and 95% of the decay phase of the current given by the following equation: y(t)=A1·e^(−t/τ1)+A2·e^(−t/τ2), where A is the amplitude, t is the time and τ is the decay time constant. The weighted tau was then calculated.
In order to evaluate the effect of pregnenolone on the function of post-synaptic GABA we recorded mIPSC and compared its amplitude and decay time between groups. We observed that mIPSC amplitude and decay time were similar between controls (amplitude: 17.9±0.8 pA; decay time: 11.1±0.3 ms) and slices pre-treated with pregnenolone (100 nM and 1 μM, respectively; amplitude: 17.3±0.4 pA, 15.9±0.4 pA; decay time: 10.2±0.4 ms, 10.8±0.5 ms).

Series [6] concerns the target T2, CB1 receptor. As to the kind of experiment: Pregnenolone concentrations in the brain after drugs of abuse and CB1 ligands (GC/MS). It is filed as in vivo, Wistar rats. Further details: tissue Charles River Laboratories (France) (animals); host or cells: living Wistar rats, whole animal. Particulars: rats, n=6-12 per group. As to the method: as §1
In this example the inventors analyzed the effects of the injection of the principal drugs of abuse on the production of pregnenolone in male Wistar rats. […] For example, in the brain, starting from pregnenolone two parallel enzymatic cascades allow producing on one hand allopregnanolone and its stereoisomer epiallopregnanolone and on the other testosterone and its metabolite DHT. These brain steroids were quantified using GC-MS, the only technique able to differentiate their subtle structural differences. […] Concentrations of neurosteroids were analyzed 15, 30 and 120 min after the injection in several ascending brain structure, the ventral midbrain the hypothalamus, the striatal complex and the frontal cortex.
The example provides data obtained in the plasma and in several brain structures: frontal cortex (FCX); nucleus accumbens (ACC); striatum (STR); hypothalamus (HYP).
The effects of THC in the brain are mediated by a family of G-protein-coupled seven membrane receptors (GCPR) and principally by the CB1 and CB2 receptors.

T1 sequence (P47746 whole entry): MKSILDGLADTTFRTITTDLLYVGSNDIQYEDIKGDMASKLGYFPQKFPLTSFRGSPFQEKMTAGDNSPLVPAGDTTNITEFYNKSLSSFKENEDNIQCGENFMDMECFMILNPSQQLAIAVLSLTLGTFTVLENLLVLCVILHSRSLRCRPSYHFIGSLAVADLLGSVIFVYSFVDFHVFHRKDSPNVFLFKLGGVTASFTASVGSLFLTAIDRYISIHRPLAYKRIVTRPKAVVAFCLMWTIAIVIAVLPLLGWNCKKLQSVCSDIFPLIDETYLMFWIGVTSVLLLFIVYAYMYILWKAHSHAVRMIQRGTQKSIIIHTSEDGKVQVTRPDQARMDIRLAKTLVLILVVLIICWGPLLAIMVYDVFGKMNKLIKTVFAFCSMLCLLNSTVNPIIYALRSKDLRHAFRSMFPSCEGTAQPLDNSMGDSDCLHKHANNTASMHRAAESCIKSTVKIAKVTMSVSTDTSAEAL
T2 sequence (P20272 whole entry): as the sequence (P47746 whole entry) above, with D95E counted along it

One may read the inhibition in vivo as how much of the control response was suppressed. Higher therefore signals strong suppression. As for `CC(=O)[C@@]1(C)CCC2C3CC=C4C[C@@H](O)CC[C@]4(C)C3CC[C@@]21C` (stereo partly drawn) [Compound 2, 17α-Methylpregnenolone], the “metabolism in downstream active steroids (Reduced metabolism / Metabolized)” value (“metabolism … (Reduced metabolism / Metabolized)” for short) in the series on CHO cells is “Reduced metabolism”. Moreover, the “production of allopregnanolone and epiallopregnanolone in nucleus accumbens” value (shortened to “production”) in [1] is given as “None of the modified pregnenolone derivatives”. For the same compound, at CB1 receptor [2], the “effect on THC-induced increase in food intake (hyperphagia) in mice” value (from here on “effect on THC-induced increase”) is “decreased THC-induced hyperphagia” and the “% Inhibition of THC-Induced food intake” value is ≥100%, P < 0.001. At CB1 receptor [2] (dose response in 24 h-food deprived mice, 0.5 mg/kg dose was ineffective), the “dose inhibiting THC-induced increase in food-intake (first effective dose)” value is on record as 1 mg/kg. Also, on CB1 receptor [3], the “first statistically significant dose for decrease of food intake” value was found to be 4 mg/kg and the “effect on food intake in 24 h-food deprived mice” value (“effect on food intake” for short) is “dose-dependently decreased food intake”. Besides, at CB1 receptor [4], the “% Inhibition temperature decrease” value is 43%, P < 0.001 and the “% increase in motor activity” value was 240%, P < 0.01. In the series with TNF-α, this compound returned an inhibition in vivo at 6 mg/kg of 60%. The “effect on increase in food intake induced by THC in ad libitum fed Wistar rats” value (“effect on increase” below) on CB1 receptor [5] is reported as “significantly reduced; also recorded: decrease significantly the increase in food intake induced by THC in rats”.
Turning to `CC(=O)C1CCC2C3CC=C4C[C@@H](F)CC[C@]4(C)C3CC[C@]12C` (stereo partly drawn) [Compound 1, 3β-Fluoropregnenolone], the “metabolism … (Reduced metabolism / Metabolized)” value in the series on CHO cells is “Reduced metabolism”. Further, in [1], the “production” value was “None of the modified pregnenolone derivatives”. Moreover, on CB1 receptor [2], the “effect on THC-induced increase” value is “decreased THC-induced hyperphagia” and the “% Inhibition of THC-Induced food intake” value is reported as ≥100%, P < 0.01. Besides, on CB1 receptor [3], the “first statistically significant dose for decrease of food intake” value is 6 mg/kg and the “effect on food intake” value is on record as “dose-dependently decreased food intake”. In the series with TNF-α, this compound returned an inhibition in vivo at 6 mg/kg of 58%. Besides, the “effect on increase” value at CB1 receptor [5] is given as “non statistically significant trend to decrease”.
`CC(=O)[C@H]1CCC2C3CC[C@@H]4C[C@@H](O)CC[C@]4(C)C3CC[C@@]21C` (stereo partly drawn) [Compound 46, 5α-Pregnan-3α-ol-20-one (Allopregnanolone), reference compound]: the “metabolism … (Reduced metabolism / Metabolized)” value in the series on CHO cells is reported as “Metabolized”. For the same compound, in the series with GABA-A receptors (slices pre-treated with 100 nM), the mIPSC amplitude was determined as 15.9±0.5 pA and the mIPSC decay time came out at 13.6 ± 0.7 ms. Also, in the series on GABA-A receptors (slices pre-treated with 1 μM), the mIPSC amplitude came out at 20.2±1.2 pA and the mIPSC decay time was determined as 22.7 ± 2.3 ms.
Regarding `CC(=O)[C@@]1(C)CCC2C3CC=C4C[C@@H](F)CC[C@]4(C)C3CC[C@@]21C` (stereo partly drawn) [Compound 3, 3β-Fluoro-17α-methylpregnenolone], the “metabolism … (Reduced metabolism / Metabolized)” value with CHO cells was “Reduced metabolism”. The “production” value in series [1] is given as “None of the modified pregnenolone derivatives”. For the same compound, on CB1 receptor [2], the “effect on THC-induced increase” value was “decreased THC-induced hyperphagia” and the “% Inhibition of THC-Induced food intake” value was ≥100%, P < 0.01. For the same compound, on CB1 receptor [3], the “first statistically significant dose for decrease of food intake” value is 6 mg/kg and the “effect on food intake” value is “dose-dependently decreased food intake”. Further, the “effect on increase” value on CB1 receptor [5] is reported as “non statistically significant trend to decrease”.
With `CCCC(C)(C)c1ccc2c(c1)OC(C)(C)[C@@H]1CC=C(C)C[C@@H]21` [JWH, 133], on CB1 receptor [6], the “effect of CB1/CB2 agonists on pregnenolone concentrations” value is “much lower and not significant effects”.
For the compound `CCCCCCC(C)(C)c1cc(O)c2c(c1)OC(C)(C)[C@@H]1CC=C(CO)C[C@@H]21` [HU210], on CB1 receptor [6], the “effect of CB1/CB2 agonists on pregnenolone concentrations” value was “induced a significant increase in pregnenolone”.

These data come from US10150793B2, “Antagonists of CB1 receptor” (INSERM (Institut National de la Santé et de la Recherche …, priority 2011, dated 2018).
